Key:
Assay type in all cases: in vivo
[1] = test system: barnyardgrass (Echinochloa crus-galli); assay: Test B flooded paddy test; settings: Flood, 250 g ai/ha; 0 to 100 scale where 0 is no effect and 100 is complete control; 13 to 15 d
Procedure, shortened: (§1)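 Percent control, visually estimated after 13–15 d in the greenhouse on a 0–100 basis, compares treated pots with untreated ones; compound was put into paddy water 3 cm above the soil when plants had two leaves.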

[2] = test system: ducksalad (Heteranthera limosa); assay: Test B flooded paddy test; settings: Flood, 250 g ai/ha; 0 to 100 scale where 0 is no effect and 100 is complete control; 13 to 15 d
Procedure, shortened: as §1

[3] = test system: sedge, umbrella (small-flower umbrella sedge, Cyperus difformis); assay: Test B flooded paddy test; settings: Flood, 250 g ai/ha; 0 to 100 scale where 0 is no effect and 100 is complete control; 13 to 15 d
Procedure, shortened: as §1

rice (Oryra sativa) = assay: Test B flooded paddy test; settings: Flood, 250 g ai/ha; 0 to 100 scale where 0 is no effect and 100 is complete control; 13 to 15 d
Procedure, shortened: as §1

[4] = test system: barnyardgrass (Echinochloa crus-galli); assay: Test A postemergence; settings: postemergence, 0 to 100 scale (0 no effect, 100 complete control)
Procedure, shortened: (§2)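 Visual injury scores from 0, no effect, to 100, complete control, were assigned versus untreated controls roughly 10 d after treatment in the greenhouse. Test chemicals, formulated with surfactant in a non-phytotoxic solvent, were applied to planted seeds as a preemergence soil spray or postemergence to one- to two-leaf plants 2 to 10 cm tall, in loam–sand soil.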

[5] = test system: ragweed (common ragweed, Ambrosia elatior); assay: Test A postemergence; settings: postemergence, 0 to 100 scale (0 no effect, 100 complete control)
Procedure, shortened: as §2

corn (Zea mays) = assay: Test A postemergence; settings: postemergence, 0 to 100 scale (0 no effect, 100 complete control)
Procedure, shortened: as §2

[6] = test system: blackgrass (Alopecurus myosuroides); assay: Test A postemergence; settings: postemergence, 0 to 100 scale (0 no effect, 100 complete control)
Procedure, shortened: as §2

[7] = test system: giant foxtail (Setaria faberii); assay: Test A postemergence; settings: postemergence, 0 to 100 scale (0 no effect, 100 complete control)
Procedure, shortened: as §2

[8] = test system: pigweed (Amaranthus retroflexus); assay: Test A postemergence; settings: postemergence, 0 to 100 scale (0 no effect, 100 complete control)
Procedure, shortened: as §2

Kochia (Kochia scoparia) [9] = assay: Test A postemergence; settings: postemergence, 0 to 100 scale (0 no effect, 100 complete control)
Procedure, shortened: as §2

[10] = test system: ryegrass, Italian (Italian ryegrass, Lolium multiflorum); assay: Test A postemergence; settings: postemergence, 0 to 100 scale (0 no effect, 100 complete control)
Procedure, shortened: as §2

[11] = test system: Galium (catchweed bedstraw, Galium aparine); assay: Test A postemergence; settings: postemergence, 0 to 100 scale (0 no effect, 100 complete control)
Procedure, shortened: as §2

[12] = test system: wheat (Triticum aestivum); assay: Test A postemergence; settings: postemergence, 0 to 100 scale (0 no effect, 100 complete control)
Procedure, shortened: as §2

[13] = test system: barnyardgrass (Echinochloa crus-galli); assay: Test A preemergence
Procedure, shortened: as §2

[14] = test system: ragweed (common ragweed, Ambrosia elatior); assay: Test A preemergence
Procedure, shortened: as §2

[15] = test system: giant foxtail (Setaria faberii); assay: Test A preemergence
Procedure, shortened: as §2

[16] = test system: pigweed (Amaranthus retroflexus); assay: Test A preemergence
Kochia (Kochia scoparia) [17] = assay: Test A preemergence
Procedure, shortened: as §2

[18] = test system: ryegrass, Italian (Italian ryegrass, Lolium multiflorum); assay: Test A preemergence
Procedure, shortened: as §2

[19] = test system: barnyardgrass (Echinochloa crus-galli); assay: Test C flooded paddy test; settings: Flood; for Plant response rating (scale of 0 to 100), Barnyardgrass: 0 is no effect, 100 is complete control
Source text: (§3) Plant species in the flooded paddy test consisted of rice (Oryza sativa), sedge, umbrella (small-flower umbrella sedge, Cyperus difformis), ducksalad (Heteranthera limosa), and barnyardgrass (Echinochloa crus-galli) grown to the 2-leaf stage for testing. At time of treatment, test pots were flooded to 3 cm above the soil surface, treated by application of test compounds directly to the paddy water, and then maintained at that water depth for the duration of the test. Treated plants and controls were maintained in a greenhouse for 13 to 15 d, after which time all species were compared to controls and visually evaluated. Plant response ratings, summarized in Table C, are based on a scale of 0 to 100 where 0 is no effect and 100 is complete control. A dash (-) response means no test result.

rice (Oryza sativa) = assay: Test C flooded paddy test; settings: Flood; for Plant response rating (scale of 0 to 100), Rice: 0 is no effect, 100 is complete control
Source text: as §3

[20] = test system: ducksalad (Heteranthera limosa); assay: Test C flooded paddy test; settings: Flood; for Plant response rating (scale of 0 to 100), Ducksalad: 0 is no effect, 100 is complete control
Source text: as §3

[21] = test system: sedge, umbrella (small-flower umbrella sedge, Cyperus difformis); assay: Test C flooded paddy test; settings: Flood; for Plant response rating (scale of 0 to 100), Sedge, Umbrella: 0 is no effect, 100 is complete control
Source text: as §3

[22] = 125 g ai/ha, visual rating after approx. 10 d
[23] = 500 g ai/ha, visual injury, approx. 10 d
[24] = 125 g ai/ha, Preemergence, visual injury after approximately 10 d, 0 to 100 scale where 0 is no effect and 100 is complete control
[25] = 500 g ai/ha, preemergence, 0 to 100 scale, 0 = no effect, 100 = complete control
[26] = 31 g ai/ha, scale 0 to 100 (0 no effect, 100 complete control), 13 to 15 d

CN1CC(c2cc(F)cc(F)c2)C(C(=O)Nc2ccc(F)cc2F)C1=O (stereo not shown) [Compound 645]
Plant response rating, Barnyardgrass [1]: 80
Plant response rating, Ducksalad [2]: 100
Plant response rating, Sedge, Umbrella [3]: 0
Plant response rating, Rice (rice (Oryra sativa)): 0
Plant response rating, Barnyardgrass [4, 22]: 90
Plant response rating, Barnyardgrass [4, 23]: 90
Plant response rating, Ragweed [5, 22]: 10
Plant response rating, Ragweed [5, 23]: 20
Plant response rating, Corn (corn (Zea mays); [22]): 20
Plant response rating, Corn (corn (Zea mays); [23]): 60
Plant response rating, Blackgrass [6, 22]: 60
Plant response rating, Blackgrass [6, 23]: 70
Plant response rating, Foxtail, Giant [7, 22]: 90
Plant response rating, Foxtail, Giant [7, 23]: 90
Plant response rating, Pigweed [8, 22]: 0
Plant response rating, Pigweed [8, 23]: 0
Plant response rating, Kochia (Kochia (Kochia scoparia) [9]; [22]): 0
Plant response rating, Kochia (Kochia (Kochia scoparia) [9]; [23]): 50
Plant response rating, Ryegrass, Italian [10, 22]: 20
Plant response rating, Ryegrass, Italian [10, 23]: 50
Plant response rating, Galium [11, 22]: 50
Plant response rating, Galium [11, 23]: 50
Plant response rating, Wheat [12, 22]: 30
Plant response rating, Wheat [12, 23]: 50
Plant response rating, Barnyardgrass [13, 24]: 90
Plant response rating, Barnyardgrass [13, 25]: 90
Plant response rating, Ragweed [14, 24]: 0
Plant response rating, Ragweed [14, 25]: 20
Plant response rating, Foxtail, Giant [15, 24]: 90
Plant response rating, Foxtail, Giant [15, 25]: 90
Plant response rating, Pigweed [16, 24]: 0
Plant response rating, Pigweed [16, 25]: 50
Plant response rating, Kochia (Kochia (Kochia scoparia) [17]; [24]): 0
Plant response rating, Kochia (Kochia (Kochia scoparia) [17]; [25]): 60
Plant response rating, Ryegrass, Italian [18, 24]: 20
Plant response rating, Ryegrass, Italian [18, 25]: 60
Plant response rating, Barnyardgrass [19, 26]: 30
Plant response rating (scale of 0 to 100), Barnyardgrass ([19]; 62 g ai/ha): 40
Plant response rating (scale of 0 to 100), Barnyardgrass ([19]; 125 g ai/ha): 65
Plant response rating (scale of 0 to 100), Barnyardgrass ([19]; 250 g ai/ha): 75
Plant response rating, Rice (rice (Oryza sativa); [26]): 0
Plant response rating (scale of 0 to 100), Rice (rice (Oryza sativa); 62 g ai/ha): 0
Plant response rating (scale of 0 to 100), Rice (rice (Oryza sativa); 125 g ai/ha): 0
Plant response rating (scale of 0 to 100), Rice (rice (Oryza sativa); 250 g ai/ha): 0
Plant response rating, Ducksalad [20, 26]: 30
Plant response rating (scale of 0 to 100), Ducksalad ([20]; 62 g ai/ha): 60
Plant response rating (scale of 0 to 100), Ducksalad ([20]; 125 g ai/ha): 80
Plant response rating (scale of 0 to 100), Ducksalad ([20]; 250 g ai/ha): 95
Plant response rating, Sedge, Umbrella [21, 26]: 0
Plant response rating (scale of 0 to 100), Sedge, Umbrella ([21]; 62 g ai/ha): 0
Plant response rating (scale of 0 to 100), Sedge, Umbrella ([21]; 125 g ai/ha): 0
Plant response rating (scale of 0 to 100), Sedge, Umbrella ([21]; 250 g ai/ha): 0

Reference: patent US12077503B2, “Substituted cyclic amides and their use as herbicides” (FMC CORPORATION, priority 2015, dated 2024)
